What all share (assay): AUC of viability dose-response curve (% viability x log10 dose units); higher = less sensitive
Common to all, as to conditions: 48 h

For one assay, the system named is P12-Ichikawa. An outline of the steps: (§1)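 Leukemia cells adapted to each medium (500 or 1000 cells/well, 1536-well plates) were exposed to library compounds in DMSO for 48 h at 37°C at 11 threefold doses, 47 μM to 0.79 nM. Luminescence by CellTiter-Glo One was normalised per plate to DMSO and cell-free wells, then fitted with a four-parameter log-logistic curve on log10 dose. Curves above full viability were scaled and quality-control failures removed before area under the curve was integrated by trapezoidal rule.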

The test system of another assay is NOMO1. An outline of the steps:
as §1

In the next assay the test system is SEM cells. In outline: as §1
Setting [1] is: RPMI 5 mM glucose + 10% dialyzed FBS.

In the case of `COC1=CC(=CC=C1)C2=CC=C(NC(=O)/C3=C(/CCC3)C(O)=O)C(=C2)F`, the “AUC of viability dose-response curve” value came out at 444 in the assay on P12-Ichikawa (HPLM + 10% dialyzed FBS); 436 in the assay on P12-Ichikawa (RPMI 5 mM glucose + 10% FBS); 431 with P12-Ichikawa (setting [1]); 428 with NOMO1 (HPLM + 10% dialyzed FBS); 469 in the assay on NOMO1 (RPMI 5 mM glucose + 10% FBS); 457 in the assay on NOMO1 (setting [1]). For the same compound, the “AUC of viability dose-response curve” value in the assay with SEM cells (HPLM + 10% dialyzed FBS) was found to be 465; with SEM cells (RPMI 5 mM glucose + 10% FBS), 461; with SEM cells (setting [1]) it was 447.
Turning to `CCCCCCCCOc1ccccc1C(=O)Nc1ccc(C(=O)OCC[N+](C)(CC)CC)cc1`, the “AUC of viability dose-response curve” value in the assay on P12-Ichikawa (HPLM + 10% dialyzed FBS) turned out to be 437; with P12-Ichikawa (RPMI 5 mM glucose + 10% FBS), 444; in the assay with P12-Ichikawa (setting [1]), 408; with NOMO1 (HPLM + 10% dialyzed FBS), 446; in the assay on NOMO1 (RPMI 5 mM glucose + 10% FBS), 401; with NOMO1 (setting [1]) it was 413. In addition, the “AUC of viability dose-response curve” value in the assay on SEM cells (HPLM + 10% dialyzed FBS) was 435; in the assay with SEM cells (RPMI 5 mM glucose + 10% FBS), 414; in the assay with SEM cells (setting [1]), 460.
Take `C[C@H]1[C@H](O)O[C@@H]2O[C@@]3(C)CC[C@H]4[C@H](C)CC[C@@H]1[C@@]24OO3`: the “AUC of viability dose-response curve” value in the assay on P12-Ichikawa (HPLM + 10% dialyzed FBS) amounted to 386; in the assay on P12-Ichikawa (RPMI 5 mM glucose + 10% FBS) it was 340; in the assay on P12-Ichikawa (setting [1]), 333; with NOMO1 (HPLM + 10% dialyzed FBS) it was 321; in the assay with NOMO1 (RPMI 5 mM glucose + 10% FBS) it was 316; with NOMO1 (setting [1]) it was 341. For the same compound, the “AUC of viability dose-response curve” value in the assay with SEM cells (HPLM + 10% dialyzed FBS) stood at 374; in the assay on SEM cells (RPMI 5 mM glucose + 10% FBS), 348; in the assay on SEM cells (setting [1]), 324.
For `CCCCOc1ccc(CC(=O)NO)cc1`, the “AUC of viability dose-response curve” value in the assay with P12-Ichikawa (HPLM + 10% dialyzed FBS) turned out to be 464; with P12-Ichikawa (RPMI 5 mM glucose + 10% FBS) it was 457; with P12-Ichikawa (setting [1]), 454; in the assay with NOMO1 (HPLM + 10% dialyzed FBS) it was 417; in the assay on NOMO1 (RPMI 5 mM glucose + 10% FBS), 459; in the assay on NOMO1 (setting [1]), 439. Besides, the “AUC of viability dose-response curve” value was 440 in the assay with SEM cells (HPLM + 10% dialyzed FBS), 463 in the assay with SEM cells (RPMI 5 mM glucose + 10% FBS) and 458 with SEM cells (setting [1]).
Consider `CCOC(CN1C(=O)[C@](CC(=O)Nc2ccc(C)cc2)(NC(=O)Nc2ccc(C)cc2)c2ccccc21)OCC`, for which the “AUC of viability dose-response curve” value with P12-Ichikawa (HPLM + 10% dialyzed FBS) was found to be 458; with P12-Ichikawa (RPMI 5 mM glucose + 10% FBS), 461; with P12-Ichikawa (setting [1]), 460; in the assay with NOMO1 (HPLM + 10% dialyzed FBS), 448; in the assay with NOMO1 (RPMI 5 mM glucose + 10% FBS), 460; with NOMO1 (setting [1]), 458. Besides, the “AUC of viability dose-response curve” value amounted to 447 in the assay with SEM cells (HPLM + 10% dialyzed FBS), 437 in the assay on SEM cells (RPMI 5 mM glucose + 10% FBS) and 466 with SEM cells (setting [1]).
For the compound `C[C@]12CC[C@@H]3c4ccc(O)cc4CC[C@H]3[C@@H]1CC[C@@H]2O`, the “AUC of viability dose-response curve” value is 446 with P12-Ichikawa (HPLM + 10% dialyzed FBS); 455 in the assay with P12-Ichikawa (RPMI 5 mM glucose + 10% FBS); 440 in the assay with P12-Ichikawa (setting [1]); 435 in the assay on NOMO1 (HPLM + 10% dialyzed FBS); 453 in the assay with NOMO1 (RPMI 5 mM glucose + 10% FBS); 450 in the assay with NOMO1 (setting [1]). In addition, the “AUC of viability dose-response curve” value is 441 in the assay with SEM cells (HPLM + 10% dialyzed FBS), 434 in the assay on SEM cells (RPMI 5 mM glucose + 10% FBS) and 431 in the assay on SEM cells (setting [1]).
Turning to `CCCc1nc2c(C)cc(-c3nc4ccccc4n3C)cc2n1Cc1ccc(-c2ccccc2C(=O)O)cc1`, the “AUC of viability dose-response curve” value in the assay on P12-Ichikawa (HPLM + 10% dialyzed FBS) was determined as 470; with P12-Ichikawa (RPMI 5 mM glucose + 10% FBS) it was 382; in the assay with P12-Ichikawa (setting [1]), 465; in the assay on NOMO1 (HPLM + 10% dialyzed FBS), 446; with NOMO1 (RPMI 5 mM glucose + 10% FBS), 463; in the assay on NOMO1 (setting [1]), 465. The figures for the “AUC of viability dose-response curve” value in the assay with SEM cells (HPLM + 10% dialyzed FBS), in the assay on SEM cells (RPMI 5 mM glucose + 10% FBS) and with SEM cells (setting [1]) were 456, 463 and 472, respectively.
Regarding `CO[C@@H]1[C@@H](OC(N)=O)[C@@H](O)[C@H](OC2=CC=C3\C(=C(NC(=O)C4=CC=C([O-])C(=C4)CC=C(C)C)/C(=O)OC3=C2C)O)OC1(C)C`, the “AUC of viability dose-response curve” value in the assay on P12-Ichikawa (HPLM + 10% dialyzed FBS) is 449; with P12-Ichikawa (RPMI 5 mM glucose + 10% FBS), 465; in the assay with P12-Ichikawa (setting [1]), 464; in the assay with NOMO1 (HPLM + 10% dialyzed FBS), 437; with NOMO1 (RPMI 5 mM glucose + 10% FBS) it was 451; with NOMO1 (setting [1]) it was 437. The “AUC of viability dose-response curve” value in the assay on SEM cells (HPLM + 10% dialyzed FBS) came to 476; with SEM cells (RPMI 5 mM glucose + 10% FBS) it was 445; in the assay with SEM cells (setting [1]), 461.
With `C[N]1N=CC2=C1C=C(C(=C2)OC3=CC=C(NC(=O)\C4=C\C=C(\C)N(C4=O)C5=CC=C(F)C=C5)C=C3F)C6=C[NH]N=C6`, the “AUC of viability dose-response curve” value with P12-Ichikawa (HPLM + 10% dialyzed FBS) was 396; in the assay on P12-Ichikawa (RPMI 5 mM glucose + 10% FBS), 397; in the assay with P12-Ichikawa (setting [1]) it was 404; with NOMO1 (HPLM + 10% dialyzed FBS) it was 401; in the assay on NOMO1 (RPMI 5 mM glucose + 10% FBS), 410; in the assay with NOMO1 (setting [1]), 413. The results for the “AUC of viability dose-response curve” value with SEM cells (HPLM + 10% dialyzed FBS), in the assay on SEM cells (RPMI 5 mM glucose + 10% FBS) and in the assay on SEM cells (setting [1]) were 268, 266 and 255, respectively.
For the compound `N#CC1(c2ccc(NC(=O)c3cccnc3NCc3ccncc3)cc2)CCCC1`, the “AUC of viability dose-response curve” value with P12-Ichikawa (HPLM + 10% dialyzed FBS) was found to be 437; in the assay with P12-Ichikawa (RPMI 5 mM glucose + 10% FBS), 461; with P12-Ichikawa (setting [1]) it was 435; in the assay on NOMO1 (HPLM + 10% dialyzed FBS) it was 442; in the assay with NOMO1 (RPMI 5 mM glucose + 10% FBS) it was 475; in the assay with NOMO1 (setting [1]), 463. Further, the “AUC of viability dose-response curve” value was determined as 442 in the assay with SEM cells (HPLM + 10% dialyzed FBS), 431 in the assay with SEM cells (RPMI 5 mM glucose + 10% FBS) and 412 in the assay with SEM cells (setting [1]).
With `O=[S+]([O-])(/N=C/c1c(O)ccc2ccccc12)c1cccs1`, the “AUC of viability dose-response curve” value was determined as 464 with P12-Ichikawa (HPLM + 10% dialyzed FBS); 465 with P12-Ichikawa (RPMI 5 mM glucose + 10% FBS); 468 in the assay with P12-Ichikawa (setting [1]); 443 with NOMO1 (HPLM + 10% dialyzed FBS); 472 with NOMO1 (RPMI 5 mM glucose + 10% FBS); 455 in the assay with NOMO1 (setting [1]). For the same compound, the “AUC of viability dose-response curve” value is 442 with SEM cells (HPLM + 10% dialyzed FBS), 428 in the assay on SEM cells (RPMI 5 mM glucose + 10% FBS) and 440 with SEM cells (setting [1]).
As for `CCC(=O)OC1CCC2C3CCC/4=C/C(=O)CC[C@@]4(C)C3CC[C@]12C` (some centres not stated), the “AUC of viability dose-response curve” value stood at 471 with P12-Ichikawa (HPLM + 10% dialyzed FBS); 473 in the assay on P12-Ichikawa (RPMI 5 mM glucose + 10% FBS); 466 in the assay with P12-Ichikawa (setting [1]); 457 in the assay on NOMO1 (HPLM + 10% dialyzed FBS); 456 with NOMO1 (RPMI 5 mM glucose + 10% FBS); 458 in the assay on NOMO1 (setting [1]). Moreover, the “AUC of viability dose-response curve” value with SEM cells (HPLM + 10% dialyzed FBS) worked out at 450; with SEM cells (RPMI 5 mM glucose + 10% FBS), 460; with SEM cells (setting [1]), 448.
Turning to `CN(C)/[N+]([O-])=N/Oc1cc(ON[N+](=O)N2CCN(C(=O)c3cc(Cc4n[nH]c(=O)c5ccccc45)ccc3F)CC2)c([N+](=O)[O-])cc1[N+](=O)[O-]`, the “AUC of viability dose-response curve” value in the assay on P12-Ichikawa (HPLM + 10% dialyzed FBS) worked out at 467; with P12-Ichikawa (RPMI 5 mM glucose + 10% FBS), 469; with P12-Ichikawa (setting [1]), 466; in the assay with NOMO1 (HPLM + 10% dialyzed FBS), 438; in the assay with NOMO1 (RPMI 5 mM glucose + 10% FBS), 460; in the assay on NOMO1 (setting [1]) it was 441. Besides, the “AUC of viability dose-response curve” value is 444 in the assay on SEM cells (HPLM + 10% dialyzed FBS), 446 in the assay on SEM cells (RPMI 5 mM glucose + 10% FBS) and 448 with SEM cells (setting [1]).

For the origin of these results see the supplement of paper PMC11451515.
